Assay results published in ChEMBL document CHEMBL1909046, “DrugMatrix in vitro pharmacology data”.

Experiments:
[1] = DRUGMATRIX: GABAA, Muscimol, Central radioligand binding (ligand: [3H] Muscimol); assay type: cell membranes, Rattus norvegicus, Wistar, Brain, Membrane; conditions: Not Active = under 50% inhibition at 10 µM
[2] = target: Matrix metalloproteinase-9 (Homo sapiens, UniProt P14780); experiment: biochemical; assay type: cell-based;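 also: inhibition of isolated MMP-9 enzyme activity toward a synthetic peptide substrate, from the DrugMatrix protease screening panel; in other assays of this panel Not Active means under 50% inhibition at 10 µM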
Sequence of Matrix metalloproteinase-9 (P14780 whole entry): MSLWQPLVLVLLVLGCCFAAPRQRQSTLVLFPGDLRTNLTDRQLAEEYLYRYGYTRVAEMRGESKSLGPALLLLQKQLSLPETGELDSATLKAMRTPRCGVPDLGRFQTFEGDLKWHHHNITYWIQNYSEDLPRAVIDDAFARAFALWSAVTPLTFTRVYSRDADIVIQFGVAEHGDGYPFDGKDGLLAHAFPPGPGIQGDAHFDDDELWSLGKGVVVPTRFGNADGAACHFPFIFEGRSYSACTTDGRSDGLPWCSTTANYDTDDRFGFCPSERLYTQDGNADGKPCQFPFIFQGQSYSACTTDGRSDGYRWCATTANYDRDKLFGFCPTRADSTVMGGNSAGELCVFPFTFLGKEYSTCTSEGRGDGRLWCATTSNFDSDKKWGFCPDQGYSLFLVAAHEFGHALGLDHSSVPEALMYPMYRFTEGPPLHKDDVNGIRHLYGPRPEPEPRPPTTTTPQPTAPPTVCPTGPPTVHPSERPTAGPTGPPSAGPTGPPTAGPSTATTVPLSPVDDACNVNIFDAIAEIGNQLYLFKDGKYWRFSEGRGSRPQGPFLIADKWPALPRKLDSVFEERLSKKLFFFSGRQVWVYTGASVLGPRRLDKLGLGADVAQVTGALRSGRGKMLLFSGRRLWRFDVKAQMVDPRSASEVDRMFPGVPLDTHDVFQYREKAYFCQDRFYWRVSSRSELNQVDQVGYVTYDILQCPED

[3] = DRUGMATRIX: Calcium Channel Type L, Phenylalkylamine radioligand binding (ligand: [3H] (-)-Desmethoxyverapamil (D-888)); assay type: cell membranes, Rattus norvegicus, Wistar, Brain, Membrane; conditions: Not Active = under 50% inhibition at 10 µM
Interstitial collagenase = target: T1, Interstitial collagenase (Homo sapiens, UniProt P03956); experiment: biochemical; assay type: tissue-based, Rheumatoid synovial fibroblasts;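 also: MMP-1 enzyme inhibition assay using a peptide substrate; in other assays of this panel Not Active means under 50% inhibition at 10 µM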
T1 sequence (P03956 whole entry): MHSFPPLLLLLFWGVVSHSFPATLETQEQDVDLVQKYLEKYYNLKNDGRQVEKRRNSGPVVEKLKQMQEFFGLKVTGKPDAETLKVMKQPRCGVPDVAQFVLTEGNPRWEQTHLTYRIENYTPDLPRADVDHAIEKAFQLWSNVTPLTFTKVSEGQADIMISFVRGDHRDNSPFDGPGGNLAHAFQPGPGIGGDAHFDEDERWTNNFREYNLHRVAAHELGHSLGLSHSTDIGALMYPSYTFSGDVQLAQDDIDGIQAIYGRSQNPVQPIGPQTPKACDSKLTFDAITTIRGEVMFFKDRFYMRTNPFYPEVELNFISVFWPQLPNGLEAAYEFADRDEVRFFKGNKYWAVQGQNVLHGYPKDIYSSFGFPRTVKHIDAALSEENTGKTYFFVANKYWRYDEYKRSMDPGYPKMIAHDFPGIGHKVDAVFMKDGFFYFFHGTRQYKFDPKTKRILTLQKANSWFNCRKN

Cytochrome P450 2E1 = Cytochrome P450 2E1 (Homo sapiens, UniProt P05181); conditions: bti-tn-5b1-4; also: in other assays of this panel Not Active means under 50% inhibition at 10 µM
Sequence of Cytochrome P450 2E1 (P05181 whole entry): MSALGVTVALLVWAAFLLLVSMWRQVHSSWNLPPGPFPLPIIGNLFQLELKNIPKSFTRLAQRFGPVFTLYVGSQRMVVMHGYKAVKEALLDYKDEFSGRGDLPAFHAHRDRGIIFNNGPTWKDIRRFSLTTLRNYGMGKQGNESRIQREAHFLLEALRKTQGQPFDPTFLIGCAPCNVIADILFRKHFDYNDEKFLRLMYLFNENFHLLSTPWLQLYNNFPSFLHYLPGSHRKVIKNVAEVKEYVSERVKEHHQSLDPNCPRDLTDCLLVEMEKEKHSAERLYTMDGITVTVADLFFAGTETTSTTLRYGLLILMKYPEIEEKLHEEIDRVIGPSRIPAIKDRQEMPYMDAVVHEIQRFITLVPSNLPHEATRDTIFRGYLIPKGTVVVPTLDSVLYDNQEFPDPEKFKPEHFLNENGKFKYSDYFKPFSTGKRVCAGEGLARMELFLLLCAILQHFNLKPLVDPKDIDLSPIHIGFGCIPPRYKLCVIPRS

[4] = DRUGMATRIX: Tumor Necrosis Factor (TNF), Non-Selective radioligand binding (ligand: [125I] TNF-alpha); assay type: cell membranes, Membrane; conditions: u-937; Not Active = under 50% inhibition at 10 µM
[5] = target: 5-hydroxytryptamine receptor 1B (Rattus norvegicus, UniProt P28564); assay type: cell membranes, Wistar, Cerebral cortex, Membrane; also: in other assays of this panel Not Active means under 50% inhibition at 10 µM
Sequence of 5-hydroxytryptamine receptor 1B (P28564 whole entry): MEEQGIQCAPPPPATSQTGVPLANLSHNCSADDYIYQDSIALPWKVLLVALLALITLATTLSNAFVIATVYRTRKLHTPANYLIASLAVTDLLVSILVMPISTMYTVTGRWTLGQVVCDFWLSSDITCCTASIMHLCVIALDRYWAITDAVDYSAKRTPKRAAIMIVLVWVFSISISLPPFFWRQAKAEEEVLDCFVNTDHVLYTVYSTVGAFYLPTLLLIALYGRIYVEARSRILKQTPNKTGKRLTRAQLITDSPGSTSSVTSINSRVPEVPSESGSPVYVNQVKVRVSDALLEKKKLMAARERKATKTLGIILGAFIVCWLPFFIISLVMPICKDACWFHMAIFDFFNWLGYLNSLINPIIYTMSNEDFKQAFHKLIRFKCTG

O=C(c1ccccc1C(F)(F)F)N1CCC(Cc2ccccc2)CC1
Not Active: IC50 [1] | Ki [1] | IC50 [2] | IC50 [3] | Ki [3] | IC50 (Interstitial collagenase) | IC50 (Cytochrome P450 2E1) | Ki (Cytochrome P450 2E1) | IC50 [4] | Ki [4] | IC50 [5]

O=C/C=C/c1ccccc1
Not Active: IC50 [1] | Ki [1] | IC50 [2] | IC50 [3] | Ki [3] | IC50 (Interstitial collagenase) | IC50 (Cytochrome P450 2E1) | Ki (Cytochrome P450 2E1) | IC50 [4] | Ki [4] | IC50 [5]

Nc1ccc2c3c(cccc13)C(=O)NC2=O
Not Active: IC50 [1] | Ki [1] | IC50 [2] | IC50 [3] | Ki [3] | IC50 (Interstitial collagenase) | IC50 (Cytochrome P450 2E1) | Ki (Cytochrome P450 2E1) | IC50 [4] | Ki [4] | IC50 [5]

COc1ccc(C(=O)N2CCCC2=O)cc1
Not Active: IC50 [1] | Ki [1] | IC50 [2] | IC50 [3] | Ki [3] | IC50 (Interstitial collagenase) | IC50 (Cytochrome P450 2E1) | Ki (Cytochrome P450 2E1) | IC50 [4] | Ki [4] | IC50 [5]

O=c1cnn([C@@H]2O[C@H](CO)[C@@H](O)[C@H]2O)c(=O)[nH]1 [6-AZAURIDINE]
Not Active: IC50 [1] | Ki [1] | IC50 [2] | IC50 [3] | Ki [3] | IC50 (Interstitial collagenase) | IC50 (Cytochrome P450 2E1) | Ki (Cytochrome P450 2E1) | IC50 [4] | Ki [4] | IC50 [5]

CC[C@H](C)[C@H]1O[C@]2(C=C[C@@H]1C)C[C@@H]1C[C@@H](C/C=C(\C)[C@@H](O[C@H]3C[C@H](OC)[C@@H](O[C@H]4C[C@H](OC)[C@@H](O)[C@H](C)O4)[C@H](C)O3)[C@@H](C)/C=C/C=C3\CO[C@@H]4[C@H](O)C(C)=C[C@@H](C(=O)O1)[C@]34O)O2.CO[C@H]1C[C@H](O[C@H]2[C@H](C)O[C@@H](O[C@@H]3/C(C)=C/C[C@@H]4C[C@@H](C[C@]5(C=C[C@H](C)[C@@H](C(C)C)O5)O4)OC(=O)[C@@H]4C=C(C)[C@@H](O)[C@H]5OC/C(=C\C=C\[C@@H]3C)[C@]54O)C[C@@H]2OC)O[C@@H](C)[C@@H]1O [ABAMECTIN]
Not Active: IC50 [1] | Ki [1] | IC50 [2] | IC50 [3] | Ki [3] | IC50 (Interstitial collagenase) | IC50 (Cytochrome P450 2E1) | Ki (Cytochrome P450 2E1) | IC50 [4] | Ki [4] | IC50 [5]

NCCCC(O)(P(=O)(O)O)P(=O)(O)O [ALENDRONIC ACID]
Not Active: IC50 [1] | Ki [1] | IC50 [2] | IC50 [3] | Ki [3] | IC50 (Interstitial collagenase) | IC50 (Cytochrome P450 2E1) | Ki (Cytochrome P450 2E1) | IC50 [4] | Ki [4] | IC50 [5]

Cc1nnc2n1-c1ccc(Cl)cc1C(c1ccccc1)=NC2 [ALPRAZOLAM]
Not Active: IC50 [1] | Ki [1] | IC50 [2] | IC50 [3] | Ki [3] | IC50 (Interstitial collagenase) | IC50 (Cytochrome P450 2E1) | Ki (Cytochrome P450 2E1) | IC50 [4] | Ki [4] | IC50 [5]

Cn1c(=O)c2[nH]cnc2n(C)c1=O.Cn1c(=O)c2[nH]cnc2n(C)c1=O.NCCN [AMINOPHYLLINE]
Not Active: IC50 [1] | Ki [1] | IC50 [2] | IC50 [3] | Ki [3] | IC50 (Interstitial collagenase) | IC50 (Cytochrome P450 2E1) | Ki (Cytochrome P450 2E1) | IC50 [4] | Ki [4] | IC50 [5]

CCC1(CCC(C)C)C(=O)NC(=O)NC1=O [AMOBARBITAL]
Not Active: IC50 [1] | Ki [1] | IC50 [2] | IC50 [3] | Ki [3] | IC50 (Interstitial collagenase) | IC50 (Cytochrome P450 2E1) | Ki (Cytochrome P450 2E1) | IC50 [4] | Ki [4] | IC50 [5]

CC1(C)S[C@@H]2[C@H](NC(=O)[C@H](N)c3ccccc3)C(=O)N2[C@H]1C(=O)O [AMPICILLIN]
Not Active: IC50 [1] | Ki [1] | IC50 [2] | IC50 [3] | Ki [3] | IC50 (Interstitial collagenase) | IC50 (Cytochrome P450 2E1) | Ki (Cytochrome P450 2E1) | IC50 [4] | Ki [4] | IC50 [5]

COc1ccc(C2C(=O)c3ccccc3C2=O)cc1 [ANISINDIONE]
Not Active: IC50 [1] | Ki [1] | IC50 [2] | IC50 [3] | Ki [3] | IC50 (Interstitial collagenase) | IC50 (Cytochrome P450 2E1) | Ki (Cytochrome P450 2E1) | IC50 [4] | Ki [4] | IC50 [5]

O=C1O[C@H]([C@@H](O)CO)C(O)=C1O [ASCORBIC ACID]
Not Active: IC50 [1] | Ki [1] | IC50 [2] | IC50 [3] | Ki [3] | IC50 (Interstitial collagenase) | IC50 (Cytochrome P450 2E1) | Ki (Cytochrome P450 2E1) | IC50 [4] | Ki [4] | IC50 [5]

CN1[C@@H]2CC[C@H]1C[C@@H](OC(=O)C(CO)c1ccccc1)C2 (stereo not given in full) [ATROPINE]
Not Active: IC50 [1] | Ki [1] | IC50 [2] | IC50 (Interstitial collagenase) | IC50 (Cytochrome P450 2E1) | Ki (Cytochrome P450 2E1) | IC50 [4] | Ki [4] | IC50 [5]

CC(C(=O)O)c1ccc2oc(-c3ccc(Cl)cc3)nc2c1 (stereo not given) [BENOXAPROFEN]
Not Active: IC50 [1] | Ki [1] | IC50 [2] | IC50 [3] | Ki [3] | IC50 (Interstitial collagenase) | IC50 (Cytochrome P450 2E1) | Ki (Cytochrome P450 2E1) | IC50 [4] | Ki [4] | IC50 [5]

COc1ccc2cc3[n+](cc2c1OC)CCc1cc2c(cc1-3)OCO2.[Cl-] [BERBERINE CHLORIDE]
Not Active: IC50 [1] | Ki [1] | IC50 [2] | IC50 [3] | Ki [3] | IC50 (Interstitial collagenase) | IC50 (Cytochrome P450 2E1) | Ki (Cytochrome P450 2E1) | IC50 [4] | Ki [4] | IC50 [5]

O=C(O)CCNC(=O)c1ccccc1 [BETAMIPRON]
Not Active: IC50 [1] | Ki [1] | IC50 [2] | IC50 [3] | Ki [3] | IC50 (Interstitial collagenase) | IC50 (Cytochrome P450 2E1) | Ki (Cytochrome P450 2E1) | IC50 [4] | Ki [4] | IC50 [5]

CC(=O)Oc1ccc(C(c2ccc(OC(C)=O)cc2)c2ccccn2)cc1 [BISACODYL]
Not Active: IC50 [1] | Ki [1] | IC50 [2] | IC50 [3] | Ki [3] | IC50 (Interstitial collagenase) | IC50 (Cytochrome P450 2E1) | Ki (Cytochrome P450 2E1) | IC50 [4] | Ki [4] | IC50 [5]

COc1cc([C@@H]2c3cc4c(cc3[C@@H](O[C@@H]3O[C@@H]5CO[C@@H](C)O[C@H]5[C@H](O)[C@H]3O)[C@H]3COC(=O)[C@H]23)OCO4)cc(OC)c1O [ETOPOSIDE]
Not Active: IC50 [1] | Ki [1] | IC50 [2] | IC50 [3] | Ki [3] | IC50 (Interstitial collagenase) | IC50 [4] | Ki [4] | IC50 [5]

COc1ccc2c3c1O[C@H]1C[C@@H](O)C=C[C@@]31CCN(C)C2 [GALANTAMINE]
Not Active: IC50 [1] | Ki [1] | IC50 [2] | IC50 [3] | Ki [3] | IC50 (Interstitial collagenase) | IC50 [4] | Ki [4] | IC50 [5]

CC(C)=CCC/C(C)=C/CO [GERANIOL]
Not Active: IC50 [1] | Ki [1] | IC50 [2] | IC50 [3] | Ki [3] | IC50 (Interstitial collagenase) | IC50 [4] | Ki [4] | IC50 [5]

CC(=O)[C@@]1(O)CC[C@H]2[C@@H]3CCC4=CC(=O)CC[C@]4(C)[C@H]3CC[C@@]21C [HYDROXYPROGESTERONE]
Not Active: IC50 [1] | Ki [1] | IC50 [2] | IC50 [3] | Ki [3] | IC50 (Interstitial collagenase) | IC50 [4] | Ki [4] | IC50 [5]

CC(C)NCC(O)COc1cccc2[nH]ccc12 (stereo not given) [PINDOLOL]
Not Active: IC50 [1] | Ki [1] | IC50 [2] | IC50 [3] | Ki [3] | IC50 (Interstitial collagenase) | IC50 [4] | Ki [4] | IC50 [5]

CC(C)c1cccc(C(C)C)c1O [PROPOFOL]
Not Active: IC50 [1] | Ki [1] | IC50 [2] | IC50 [3] | Ki [3] | IC50 (Interstitial collagenase) | IC50 [4] | Ki [4] | IC50 [5]
